# Structures can show the parent of a compound that is named as a salt. Where a SMILES comes first, the peptide text is derived from it.
# Target: T1, LmjIPCS (inositol phosphorylceramide synthase from L. major) (Leishmania major, UniProt E9AFX2)
# T1 sequence (E9AFX2 1-338): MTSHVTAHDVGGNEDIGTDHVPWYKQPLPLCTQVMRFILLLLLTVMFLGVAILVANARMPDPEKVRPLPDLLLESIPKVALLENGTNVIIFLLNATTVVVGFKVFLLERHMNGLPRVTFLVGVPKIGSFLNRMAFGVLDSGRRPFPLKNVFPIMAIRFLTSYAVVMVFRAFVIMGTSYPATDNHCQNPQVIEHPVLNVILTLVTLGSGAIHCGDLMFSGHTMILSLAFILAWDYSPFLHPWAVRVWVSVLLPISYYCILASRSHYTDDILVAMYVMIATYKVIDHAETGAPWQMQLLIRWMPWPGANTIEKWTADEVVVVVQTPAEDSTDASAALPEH
# Assay: biochemical
# Type: biochemical
# Parameters: inhibition: dose or concentration left out as unconfirmed
# Details: not given
row,Compound,20mM inhibition LmjIPCS [%]
1,CN1CCOC(c2ccccc2)c2ccccc2C1 (stereo not drawn) [NEFOPAM],68
2,CRESOL,53
3,C[N+]12CCC(CC1)C(OC(=O)C(O)(c1ccccc1)c1ccccc1)C2 (stereo not drawn) [CLIDINIUM BROMIDE],54
4,CC1=C(/C=C/C(C)=C/C=C/C(C)=C/C=C/C=C(C)/C=C/C=C(C)/C=C/C2=C(C)CCCC2(C)C)C(C)(C)CCC1 [beta-CAROTENE],45
5,Oc1c(Cl)cc(Cl)c(Cl)c1Cc1c(O)c(Cl)cc(Cl)c1Cl [HEXACHLOROPHENE],41
6,CCN(CC)CCOC(=O)C(Cc1cccc2ccccc12)CC1CCCO1 (stereo not drawn) [NAFRONYL],46
7,CCCNCC(O)COc1ccccc1C(=O)CCc1ccccc1 (stereo not drawn) [PROPAFENONE],61
8,O=C(CCCN1CCN(c2ccccn2)CC1)c1ccc(F)cc1 [AZAPERONE],35
9,Cc1cc2c(C(C)C)c(O)c(O)c(C=O)c2c(O)c1-c1c(C)cc2c(C(C)C)c(O)c(O)c(C=O)c2c1O [GOSSYPOL],37
10,COc1cc(NC(C)CCCN)c2ncccc2c1 (stereo not drawn) [PRIMAQUINE],69
11,CCN(CC)C(C)CN1c2ccccc2Sc2ccccc21 (stereo not drawn) [ETHOPROPAZINE],63
12,CCN(CC)CCCC(C)Nc1ccnc2cc(Cl)ccc12 (stereo not drawn) [CHLOROQUINE],38
13,OC(CCN1CCCCC1)(c1ccccc1)C1CCCCC1 (stereo not drawn) [TRIHEXYPHENIDYL],57

# Same assay, conditions: NINDS set screen, compound at 20mM (so in the source)
row,20mM inhibition LmjIPCS [%],Compound
1,15,COc1ccc(CCC(=O)c2c(O)cc(O[C@@H]3O[C@H](CO)[C@@H](O)[C@H](O)[C@H]3O[C@@H]3O[C@@H](C)[C@H](O)[C@@H](O)[C@H]3O)cc2O)cc1O [NEOHESPERIDIN DIHYDROCHALCONE]

# Same assay, conditions: NINDS set screen, single concentration printed as 20mM
row,20mM inhibition LmjIPCS [%],Compound
1,37,"c1ccc2c(Cc3c[nH]c4ccccc34)c[nH]c2c1 [3,3'-DIINDOLYLMETHANE]"
2,56,COLISTIMETHATE
3,41,c1ccc2[nH]c(-c3cscn3)nc2c1 [THIABENDAZOLE]

# Same assay, conditions: NINDS set screen; read-out: inhibition LmjIPCS
row,inhibition [%],Compound
1,16,CO/N=C(\C(=O)N[C@@H]1C(=O)N2C(C(=O)O)=C(COC(N)=O)CS[C@H]12)c1ccco1 [CEFUROXIME]
2,15,O=C(CCc1ccc(O)cc1)c1c(O)cc(O)cc1O[C@@H]1O[C@H](CO)[C@@H](O)[C@H](O)[C@H]1O [PHLORIDZIN]
3,22,O=c1oc2c(O)c(O)cc3c(=O)oc4c(O)c(O)cc1c4c23 [ELLAGIC ACID]
4,12,COc1ccc2cc(CCC(C)=O)ccc2c1 [NABUMETONE]
5,31,CCN(CCO)CCCC(C)Nc1ccnc2cc(Cl)ccc12 (stereo not drawn) [HYDROXYCHLOROQUINE]
6,-4.75,Cc1cc(C)cc(OCC2CNC(=O)O2)c1 (stereo not drawn) [METAXALONE]

# Same assay, conditions: read-out: 20mM inhibition LmjIPCS
row,Compound,inhibition at 20000 µM [%]
1,C=C(C)[C@@H]1CC=C(C(=O)O)CC1 [PERILLIC ACID (-)],12
2,CO/N=C1\CN(c2nc3c(cc2F)c(=O)c(C(=O)O)cn3C2CC2)CC1CN (stereo not drawn) [GEMIFLOXACIN],25
3,CC(C(=O)O)c1ccc(C(=O)c2cccs2)cc1 (stereo not drawn) [SUPROFEN],5
4,NC12CC3CC(CC(C3)C1)C2 [AMANTADINE],30
5,NC(=O)c1ncn([C@@H]2O[C@H](CO)[C@@H](O)[C@H]2O)c1O [MIZORIBINE],6.58
6,C[C@@H]1O[C@@H](Oc2c(-c3ccc(O)c(O)c3)oc3cc(O)cc(O)c3c2=O)[C@H](O)[C@H](O)[C@H]1O [QUERCITRIN],6.42
7,CC(C(=O)O)c1cccc(Oc2ccccc2)c1 (stereo not drawn) [FENOPROFEN],6
8,COc1ccc2c(c1)[nH]c1c(C)nccc12 [HARMINE],32
9,C[C@@H]1O[C@@H](OC[C@H]2O[C@@H](Oc3c(-c4ccc(OCCO)c(OCCO)c4)oc4cc(OCCO)cc(O)c4c3=O)[C@H](O)[C@@H](O)[C@@H]2O)[C@H](O)[C@H](O)[C@H]1O [TROXERUTIN],20
10,CC(C)=CCC1=C(O)C(=O)c2ccccc2C1=O [LAPACHOL],5.55
11,COc1cc(/C=C/C(=O)CC(=O)/C=C/c2ccc(O)c(OC)c2)ccc1O [CURCUMIN],-10
12,CCOC(=O)[C@H](CCc1ccccc1)N[C@@H](C)C(=O)N1[C@H](C(=O)O)C[C@H]2CCCC[C@@H]21 [TRANDOLAPRIL],7.54
13,C[C@H]1O[C@@H](O[C@H]2[C@@H](O)C[C@H](O[C@H]3[C@@H](O)C[C@H](O[C@H]4CC[C@@]5(C)[C@H](CC[C@@H]6[C@@H]5CC[C@]5(C)[C@@H](C7=CC(=O)OC7)CC[C@]65O)C4)O[C@@H]3C)O[C@@H]2C)C[C@H](O)[C@@H]1O [DIGITOXIN],5.28
14,N[C@@H](Cc1ccccc1)C(=O)N[C@@H](Cc1ccc(O)cc1)C(=O)O [PHENYLALANYLTYROSINE] (H-Phe-Tyr-OH),7.42
15,CN[C@H](CC(C)C)C(=O)N[C@H]1C(=O)N[C@@H](CC(N)=O)C(=O)N[C@H]2C(=O)N[C@H]3C(=O)N[C@H](C(=O)N[C@H](C(=O)O)c4cc(O)cc(O)c4-c4cc3ccc4O)[C@H](O)c3ccc(c(Cl)c3)Oc3cc2cc(c3O[C@@H]2O[C@H](CO)[C@@H](O)[C@H](O)[C@H]2O[C@H]2C[C@](C)(N)[C@H](O)[C@H](C)O2)Oc2ccc(cc2Cl)[C@H]1O [VANCOMYCIN],31

# Same assay, conditions: read-out: inhibition LmjIPCS
row,inhibition [%],Compound
1,23,COC(=O)[C@@H]1[C@H]2C[C@H]3c4[nH]c5ccccc5c4CCN3C[C@@H]2CC[C@@H]1O [YOHIMBINE HYDROCHLORIDE]
2,2.58,CC(C)Cc1ccc(C(C)C(=O)O)cc1 (stereo not drawn) [IBUPROFEN]
3,19,COc1ccc2c(c1OC)C(=O)O[C@@H]2[C@H]1c2c(cc3c(c2OC)OCO3)CCN1C [NOSCAPINE]
4,9,CCc1ccc(CCOc2ccc(CC3SC(=O)NC3=O)cc2)nc1 (stereo not drawn) [PIOGLITAZONE]
5,-15,COc1ccc(NS(=O)(=O)c2ccc(N)cc2)nn1 [SULFAMETHOXYPYRIDAZINE]
6,23,COc1cc([C@@H]2c3cc4c(cc3[C@@H](O[C@@H]3O[C@@H]5CO[C@@H](c6cccs6)O[C@H]5[C@H](O)[C@H]3O)[C@H]3COC(=O)[C@H]23)OCO4)cc(OC)c1O [TENIPOSIDE]
7,0.506,CCCC(CCC)C(=O)O [VALPROATE SODIUM]
8,29,CC1(C)S[C@@H]2[C@H](NC(=O)[C@H](N)c3ccccc3)C(=O)N2[C@H]1C(=O)O [AMPICILLIN]
9,-19,Cc1c(N(C)C)c(=O)n(-c2ccccc2)n1C [AMINOPHENAZONE]
10,-1.19,CC[C@@H](CO)NCCN[C@@H](CC)CO [ETHAMBUTOL]
11,7,CCCCC1(COC(=O)CCC(=O)O)C(=O)N(c2ccccc2)N(c2ccccc2)C1=O [SUXIBUZONE]
12,15,C[N+](C)(C)CC(O)CC(=O)[O-] (stereo not drawn) [CARNITINE]
13,17,CCN(CC)CCNC(=O)c1cc(Br)c(N)cc1OC [BROMOPRIDE]

# Same assay, conditions: screening of NINDS set, sheet Screen 1; read-out: inhibition LmjIPCS
row,inhibition [%],Compound
1,9,CC(C)(C)NCC(O)COc1cccc2c1CC(O)C(O)C2 (stereo not drawn) [NADOLOL]
2,2.64,O=C(COc1ccc(Cl)cc1)N1CCN(Cc2ccc3c(c2)OCO3)CC1 [FIPEXIDE]
3,3.35,Cc1ccccc1OCC(O)CO (stereo not drawn) [MEPHENESIN]
4,4,NC(=O)c1ccc([N+](=O)[O-])cc1Cl [AKLOMIDE]
5,9,O=C(O)c1cc2cc(Cl)ccc2[nH]1 [5-CHLOROINDOLE-2-CARBOXYLIC ACID]

# Same assay, conditions: single concentration 20mM as printed; screening of NINDS set, sheet Screen 1
row,20mM inhibition LmjIPCS [%],Compound
1,8,COc1ccc2c(c1)CC[C@@H]1[C@@H]2CC[C@]2(C)[C@@H](O)[C@H](O)C[C@@H]12 [ESTRIOL METHYL ETHER]
